Species: Rattus norvegicus
Test: Open TG-GATES - Regimen: Single
Assay type: toxicity, organism-based, Sprague-Dawley
Design: regimen Single, gender Male, age 6 weeks
Settings: in vivo, po, 60 mg/kg, route gavage, dose level Middle; for APTT / Bas / Eos / Fbg / Hb / Ht / Lym / MCH / MCHC / MCV / Mono / Neu / PT / Plat / RBC / Ret / WBC: tissue Blood; for KIDNEY_L / KIDNEY_R / KIDNEY_TOTAL: tissue Kidney; for LIVER: tissue Liver; for A/G / ALP / ALT / AST / BUN / CRE / Ca / Cl / DBIL / GLC / IP / K / LDH / Na / PL / RALB / TBIL / TC / TG / TP / gamma-GTP: tissue Plasma

## CC(CN1c2ccccc2Sc2ccccc21)N(C)C (configuration not stated) [PROMETHAZINE]
3 h
  TERMINAL_BW: 213.4 g
  APTT: 22.4 s
  Bas: 0%
  Eos: 1%
  Fbg: 317 mg/dL
  Hb: 13.2 g/dL
  Ht: 40.6%
  Lym: 71.6%
  MCH: 20.2 pg
  MCHC: 32.6%
  MCV: 62 fL
  Mono: 2.2%
  Neu: 25%
  PT: 16.4 s
  Plat: 126 x10_4/uL
  RBC: 655.2 x10_4/ul
  Ret: 7.3%
  WBC: 64.7 x10_2/uL
  KIDNEY_L: 0.9 g
  KIDNEY_R: 0.9 g
  KIDNEY_TOTAL: 1.9 g
  LIVER: 9.3 g
  A/G: 1.3
  ALP: 1673 IU/L
  ALT: 56.2 IU/L
  AST: 87.6 IU/L
  BUN: 9.6 mg/dL
  CRE: 0.2 mg/dL
  Ca: 10.5 mg/dL
  Cl: 105.6 meq/L
  DBIL: 0.024 mg/dL
  GLC: 172.8 mg/dL
  IP: 9.6 mg/dL
  K: 4.3 meq/L
  LDH: 222.6 IU/L
  Na: 142.6 meq/L
  PL: 132 mg/dL
  RALB: 3.1 g/dL
  TBIL: 0.016 mg/dL
  TC: 75 mg/dL
  TG: 50 mg/dL
  TP: 5.5 g/dL
  gamma-GTP: 1.2 IU/L
6 h
  TERMINAL_BW: 210 g
  APTT: 23.8 s
  Bas: 0%
  Eos: 0.8%
  Fbg: 322 mg/dL
  Hb: 13.4 g/dL
  Ht: 40.7%
  Lym: 77.2%
  MCH: 20.1 pg
  MCHC: 33%
  MCV: 61.1 fL
  Mono: 2.8%
  Neu: 18.4%
  PT: 16.3 s
  Plat: 112.6 x10_4/uL
  RBC: 667.8 x10_4/ul
  Ret: 7.3%
  WBC: 85.9 x10_2/uL
  KIDNEY_L: 0.9 g
  KIDNEY_R: 0.9 g
  KIDNEY_TOTAL: 1.8 g
  LIVER: 8.6 g
  A/G: 1.3
  ALP: 1478.6 IU/L
  ALT: 43.2 IU/L
  AST: 74.6 IU/L
  BUN: 9.4 mg/dL
  CRE: 0.2 mg/dL
  Ca: 10.9 mg/dL
  Cl: 105.2 meq/L
  DBIL: 0.016 mg/dL
  GLC: 180.6 mg/dL
  IP: 9.6 mg/dL
  K: 4.3 meq/L
  LDH: 192.2 IU/L
  Na: 141.8 meq/L
  PL: 125 mg/dL
  RALB: 3 g/dL
  TBIL: 0.022 mg/dL
  TC: 71.6 mg/dL
  TG: 49 mg/dL
  TP: 5.5 g/dL
  gamma-GTP: 1.4 IU/L
9 h
  TERMINAL_BW: 211 g
  APTT: 24.1 s
  Bas: 0%
  Eos: 1%
  Fbg: 315.8 mg/dL
  Hb: 13.3 g/dL
  Ht: 40.8%
  Lym: 78.6%
  MCH: 20.4 pg
  MCHC: 32.6%
  MCV: 62.5 fL
  Mono: 3%
  Neu: 17.2%
  PT: 16.6 s
  Plat: 122 x10_4/uL
  RBC: 652.4 x10_4/ul
  Ret: 7.6%
  WBC: 101.4 x10_2/uL
  KIDNEY_L: 0.9 g
  KIDNEY_R: 0.9 g
  KIDNEY_TOTAL: 1.8 g
  LIVER: 8.3 g
  A/G: 1.3
  ALP: 1318.2 IU/L
  ALT: 43.2 IU/L
  AST: 69.6 IU/L
  BUN: 11.6 mg/dL
  CRE: 0.2 mg/dL
  Ca: 10.7 mg/dL
  Cl: 106.2 meq/L
  DBIL: 0.02 mg/dL
  GLC: 179.2 mg/dL
  IP: 9.5 mg/dL
  K: 4.2 meq/L
  LDH: 155.8 IU/L
  Na: 140.2 meq/L
  PL: 131 mg/dL
  RALB: 3 g/dL
  TBIL: 0.026 mg/dL
  TC: 77 mg/dL
  TG: 46.8 mg/dL
  TP: 5.4 g/dL
  gamma-GTP: 1.2 IU/L
24 h
  TERMINAL_BW: 217.9 g
  APTT: 23.6 s
  Bas: 0%
  Eos: 1%
  Fbg: 311.6 mg/dL
  Hb: 13.4 g/dL
  Ht: 40.3%
  Lym: 80%
  MCH: 21.1 pg
  MCHC: 33.3%
  MCV: 63.4 fL
  Mono: 2.2%
  Neu: 16%
  PT: 16.7 s
  Plat: 126.1 x10_4/uL
  RBC: 635.4 x10_4/ul
  Ret: 6.8%
  WBC: 113 x10_2/uL
  KIDNEY_L: 1 g
  KIDNEY_R: 1 g
  KIDNEY_TOTAL: 1.9 g
  LIVER: 9.5 g
  A/G: 1.3
  ALP: 1785 IU/L
  ALT: 46.8 IU/L
  AST: 68 IU/L
  BUN: 17.6 mg/dL
  CRE: 0.2 mg/dL
  Ca: 10.8 mg/dL
  Cl: 106.4 meq/L
  DBIL: 0.004 mg/dL
  GLC: 190.6 mg/dL
  IP: 7.4 mg/dL
  K: 4.1 meq/L
  LDH: 185.4 IU/L
  Na: 142 meq/L
  PL: 127.6 mg/dL
  RALB: 3.1 g/dL
  TBIL: 0.014 mg/dL
  TC: 68.8 mg/dL
  TG: 73 mg/dL
  TP: 5.5 g/dL
  gamma-GTP: 1.2 IU/L

— ChEMBL document CHEMBL3885861, “Open TG-GATES”
